Data published in PMC5524711 (Scientific Reports, 2017).
Where two headings read alike, the source gives them in different places.

Assays:
α4β3δ GABAA receptors [1] = biological target: T1, α4β3δ GABAA receptors (UniProt P18506+P48169+P63079); parameters: method as in Borghese et al., 2006; settings: a4b3d; ref Borghese et al., 2006; cited from earlier work
T1 construct: expressed in transfected cells; host or cells: Xenopus laevis oocytes (cRNA injection)

α4β3γ2 GABAA receptors [2] = biological target: T2, α4β3γ2 GABAA receptors (UniProt P18508+P48169+P63079); parameters: method as in Borghese et al., 2006; settings: a4b3g2; ref Borghese et al., 2006; cited from earlier work
T2 construct: expressed in transfected cells; host or cells: Xenopus laevis oocytes (cRNA injection)
T2 sequence (P48169 36-554): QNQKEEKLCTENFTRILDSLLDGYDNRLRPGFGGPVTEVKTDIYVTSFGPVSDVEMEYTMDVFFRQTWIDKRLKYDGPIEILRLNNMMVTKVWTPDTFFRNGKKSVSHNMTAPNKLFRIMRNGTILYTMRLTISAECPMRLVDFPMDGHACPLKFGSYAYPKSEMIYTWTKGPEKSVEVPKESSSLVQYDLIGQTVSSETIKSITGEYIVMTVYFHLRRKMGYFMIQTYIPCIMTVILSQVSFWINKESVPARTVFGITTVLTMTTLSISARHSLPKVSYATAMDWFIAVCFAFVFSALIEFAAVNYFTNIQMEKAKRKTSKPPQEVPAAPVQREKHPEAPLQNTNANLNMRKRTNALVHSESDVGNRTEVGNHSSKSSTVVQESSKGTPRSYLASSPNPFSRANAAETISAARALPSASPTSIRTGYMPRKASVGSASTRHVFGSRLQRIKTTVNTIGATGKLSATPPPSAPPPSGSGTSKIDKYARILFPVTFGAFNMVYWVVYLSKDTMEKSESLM
T2 sequence (P63079 26-473): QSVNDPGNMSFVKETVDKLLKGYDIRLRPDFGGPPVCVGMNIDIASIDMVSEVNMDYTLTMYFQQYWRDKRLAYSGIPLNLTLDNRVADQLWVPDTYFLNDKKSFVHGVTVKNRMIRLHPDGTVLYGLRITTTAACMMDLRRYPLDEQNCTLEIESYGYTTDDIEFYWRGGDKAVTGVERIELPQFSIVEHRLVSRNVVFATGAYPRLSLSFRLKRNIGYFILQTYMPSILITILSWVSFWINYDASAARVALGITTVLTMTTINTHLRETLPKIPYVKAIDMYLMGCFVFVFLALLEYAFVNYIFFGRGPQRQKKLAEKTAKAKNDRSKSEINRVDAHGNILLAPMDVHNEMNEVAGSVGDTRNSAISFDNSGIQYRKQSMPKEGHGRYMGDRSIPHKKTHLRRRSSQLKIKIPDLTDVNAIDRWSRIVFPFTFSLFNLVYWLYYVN
T2 sequence (P18508 39-466): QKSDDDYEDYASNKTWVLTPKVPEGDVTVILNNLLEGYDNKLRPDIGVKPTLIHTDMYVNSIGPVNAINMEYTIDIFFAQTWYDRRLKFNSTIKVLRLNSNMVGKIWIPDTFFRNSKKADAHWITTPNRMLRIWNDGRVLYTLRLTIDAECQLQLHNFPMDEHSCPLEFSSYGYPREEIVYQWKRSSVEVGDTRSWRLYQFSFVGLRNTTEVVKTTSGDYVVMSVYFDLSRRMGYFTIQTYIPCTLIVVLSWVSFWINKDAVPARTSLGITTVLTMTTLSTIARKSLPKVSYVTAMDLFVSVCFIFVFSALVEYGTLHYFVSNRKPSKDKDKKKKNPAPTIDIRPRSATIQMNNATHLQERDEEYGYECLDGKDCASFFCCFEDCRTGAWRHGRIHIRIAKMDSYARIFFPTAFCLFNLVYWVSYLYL

[3] = biological target: T3, α1β2(N265S)γ2 GABAA receptors (UniProt P18508+P47870+P62813, N289S); experiment: Xenopus oocyte two-electrode voltage clamp; format: cell-based, rat and human; settings: a1b2(N265S)g2
T3 construct: expressed in transfected cells; host or cells: Xenopus laevis oocytes (cRNA injection)
T3 sequence (P62813 28-455): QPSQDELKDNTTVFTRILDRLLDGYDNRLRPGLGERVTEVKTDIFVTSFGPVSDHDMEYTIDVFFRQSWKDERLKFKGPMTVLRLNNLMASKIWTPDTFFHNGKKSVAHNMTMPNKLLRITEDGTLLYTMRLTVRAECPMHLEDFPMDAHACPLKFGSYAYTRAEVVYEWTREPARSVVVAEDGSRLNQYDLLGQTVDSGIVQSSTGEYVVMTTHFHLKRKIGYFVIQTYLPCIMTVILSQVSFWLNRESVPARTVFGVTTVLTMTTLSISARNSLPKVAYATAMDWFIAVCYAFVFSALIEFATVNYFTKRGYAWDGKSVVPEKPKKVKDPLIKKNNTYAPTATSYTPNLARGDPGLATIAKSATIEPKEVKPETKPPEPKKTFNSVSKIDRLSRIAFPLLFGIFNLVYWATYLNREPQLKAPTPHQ
T3 sequence (P47870 25-474 isoform P47870-1 N289S limits assumed): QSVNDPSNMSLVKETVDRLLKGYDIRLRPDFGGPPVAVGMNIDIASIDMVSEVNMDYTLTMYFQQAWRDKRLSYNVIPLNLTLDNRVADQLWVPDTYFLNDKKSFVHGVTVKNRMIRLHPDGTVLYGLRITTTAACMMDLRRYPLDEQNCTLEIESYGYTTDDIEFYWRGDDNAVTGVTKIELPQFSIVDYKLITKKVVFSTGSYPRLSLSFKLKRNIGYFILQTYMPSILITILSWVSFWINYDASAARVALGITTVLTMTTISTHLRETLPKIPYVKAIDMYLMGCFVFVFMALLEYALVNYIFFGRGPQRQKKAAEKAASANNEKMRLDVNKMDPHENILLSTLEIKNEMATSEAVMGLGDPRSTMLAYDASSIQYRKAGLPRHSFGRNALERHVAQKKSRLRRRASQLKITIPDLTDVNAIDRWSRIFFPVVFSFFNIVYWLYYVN
T3 sequence (P18508 39-466): as the sequence (P18508 39-466) above

α1β3δ GABAA receptors = biological target: T4, α1β3δ GABAA receptors (Rattus norvegicus, UniProt P18506+P62813+P63079); experiment: Xenopus oocyte two-electrode voltage clamp; format: cell-based; settings: a1b3d
T4 construct: expressed in transfected cells; host or cells: Xenopus laevis oocytes (cRNA injection)
T4 sequence (P62813 28-455): as the sequence (P62813 28-455) above
T4 sequence (P63079 26-473): as the sequence (P63079 26-473) above
T4 sequence (P18506 17-449 limits assumed): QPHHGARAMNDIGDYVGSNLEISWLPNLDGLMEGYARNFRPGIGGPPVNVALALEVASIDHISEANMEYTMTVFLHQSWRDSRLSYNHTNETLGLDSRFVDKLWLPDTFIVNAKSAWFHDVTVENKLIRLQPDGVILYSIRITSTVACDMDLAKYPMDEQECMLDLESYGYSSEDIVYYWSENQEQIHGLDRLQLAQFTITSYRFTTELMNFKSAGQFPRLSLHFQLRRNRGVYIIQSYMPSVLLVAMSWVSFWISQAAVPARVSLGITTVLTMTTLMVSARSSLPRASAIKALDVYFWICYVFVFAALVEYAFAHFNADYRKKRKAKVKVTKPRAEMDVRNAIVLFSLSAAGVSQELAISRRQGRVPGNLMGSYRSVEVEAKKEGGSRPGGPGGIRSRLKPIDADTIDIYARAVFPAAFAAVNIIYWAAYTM

α1β1γ2 GABAA receptors = biological target: T5, α1β1γ2 GABAA receptors (Rattus norvegicus, UniProt P15431+P18508+P62813); experiment: Xenopus oocyte two-electrode voltage clamp; format: cell-based; settings: a1b1g2
T5 construct: expressed in transfected cells; host or cells: Xenopus laevis oocytes (cRNA injection)
T5 sequence (P62813 28-455): as the sequence (P62813 28-455) above
T5 sequence (P15431 26-474): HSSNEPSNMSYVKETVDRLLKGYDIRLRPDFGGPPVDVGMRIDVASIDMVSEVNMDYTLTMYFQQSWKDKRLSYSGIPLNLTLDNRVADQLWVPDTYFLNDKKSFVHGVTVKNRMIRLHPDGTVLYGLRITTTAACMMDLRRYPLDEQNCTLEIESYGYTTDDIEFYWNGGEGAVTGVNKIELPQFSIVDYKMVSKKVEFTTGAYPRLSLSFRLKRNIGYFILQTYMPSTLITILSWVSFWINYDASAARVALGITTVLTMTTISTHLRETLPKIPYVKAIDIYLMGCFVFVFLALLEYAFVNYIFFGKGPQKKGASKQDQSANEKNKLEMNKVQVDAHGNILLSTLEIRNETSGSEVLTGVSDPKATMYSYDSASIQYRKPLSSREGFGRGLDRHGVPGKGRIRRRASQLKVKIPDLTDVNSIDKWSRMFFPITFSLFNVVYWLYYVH
T5 sequence (P18508 39-466): as the sequence (P18508 39-466) above

α5β3 GABAA receptors = biological target: T6, α5β3 GABAA receptors (UniProt P31644+P63079); experiment: Xenopus oocyte two-electrode voltage clamp; format: cell-based, rat; settings: a5b3
T6 construct: expressed in transfected cells; host or cells: Xenopus laevis oocytes (cRNA injection)
T6 sequence (P31644 32-462): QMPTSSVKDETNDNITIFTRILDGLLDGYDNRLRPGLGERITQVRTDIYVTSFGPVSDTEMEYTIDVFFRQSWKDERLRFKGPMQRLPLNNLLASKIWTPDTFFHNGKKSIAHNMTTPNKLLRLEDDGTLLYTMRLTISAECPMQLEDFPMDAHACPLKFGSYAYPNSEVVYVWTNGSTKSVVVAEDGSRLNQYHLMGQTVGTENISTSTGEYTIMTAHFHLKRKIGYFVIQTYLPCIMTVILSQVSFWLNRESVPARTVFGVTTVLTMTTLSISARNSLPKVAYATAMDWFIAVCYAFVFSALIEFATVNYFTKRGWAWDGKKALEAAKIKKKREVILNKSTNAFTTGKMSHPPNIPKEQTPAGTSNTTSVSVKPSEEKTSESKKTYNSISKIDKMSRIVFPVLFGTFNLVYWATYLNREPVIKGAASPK
T6 sequence (P63079 26-473): as the sequence (P63079 26-473) above

α5β3γ2 GABAA receptors = biological target: T7, α5β3γ2 GABAA receptors (UniProt P18508+P31644+P63079); experiment: Xenopus oocyte two-electrode voltage clamp; format: cell-based, rat; settings: a5b3g2
T7 construct: expressed in transfected cells; host or cells: Xenopus laevis oocytes (cRNA injection)
T7 sequence (P31644 32-462): as the sequence (P31644 32-462) above
T7 sequence (P63079 26-473): as the sequence (P63079 26-473) above
T7 sequence (P18508 39-466): as the sequence (P18508 39-466) above

α1β2γ1 GABAA receptors = biological target: T8, α1β2γ1 GABAA receptors (UniProt P47870+P62813+Q8N1C3); experiment: Xenopus oocyte two-electrode voltage clamp; format: cell-based, rat and human; settings: a1b2g1
T8 construct: expressed in transfected cells; host or cells: Xenopus laevis oocytes (cRNA injection); γ1 cDNA synthesized by GenScript in pGEMHE

α1β2γ2 GABAA receptors = biological target: T9, α1β2γ2 GABAA receptors (UniProt P18508+P47870+P62813); experiment: Xenopus oocyte two-electrode voltage clamp; format: cell-based, rat and human
T9 construct: expressed in transfected cells; host or cells: Xenopus laevis oocytes (cRNA injection)
T9 sequence (P62813 28-455): as the sequence (P62813 28-455) above
T9 sequence (P47870 26-474 isoform P47870-1 limits assumed): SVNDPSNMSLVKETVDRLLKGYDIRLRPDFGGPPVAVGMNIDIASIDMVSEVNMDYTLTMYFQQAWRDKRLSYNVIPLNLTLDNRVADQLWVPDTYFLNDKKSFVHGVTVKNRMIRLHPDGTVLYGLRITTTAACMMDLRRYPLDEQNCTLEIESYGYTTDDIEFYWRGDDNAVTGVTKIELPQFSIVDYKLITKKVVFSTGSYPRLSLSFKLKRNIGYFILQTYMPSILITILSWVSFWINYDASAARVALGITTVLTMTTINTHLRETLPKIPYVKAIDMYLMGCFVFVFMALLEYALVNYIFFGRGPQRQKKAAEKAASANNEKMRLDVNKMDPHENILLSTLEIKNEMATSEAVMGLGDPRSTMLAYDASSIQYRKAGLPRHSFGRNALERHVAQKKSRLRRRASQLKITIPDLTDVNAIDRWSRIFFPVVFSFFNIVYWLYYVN
T9 sequence (P18508 39-466): as the sequence (P18508 39-466) above

α1β2 GABAA receptors = biological target: T10, α1β2 GABAA receptors (UniProt P47870+P62813); experiment: Xenopus oocyte two-electrode voltage clamp; format: cell-based, rat and human; settings: a1b2
T10 construct: expressed in transfected cells; host or cells: Xenopus laevis oocytes (cRNA injection)
T10 sequence (P62813 28-455): as the sequence (P62813 28-455) above
T10 sequence (P47870 26-474 isoform P47870-1 limits assumed): as the sequence (P47870 26-474 isoform P47870-1 limits assumed) above

α1β3 GABAA receptors = biological target: T11, α1β3 GABAA receptors (Rattus norvegicus, UniProt P62813+P63079); experiment: Xenopus oocyte two-electrode voltage clamp; format: cell-based; settings: a1b3
T11 construct: expressed in transfected cells; host or cells: Xenopus laevis oocytes (cRNA injection)
T11 sequence (P62813 28-455): as the sequence (P62813 28-455) above
T11 sequence (P63079 26-473): as the sequence (P63079 26-473) above

α1β3γ2 GABAA receptors = biological target: T12, α1β3γ2 GABAA receptors (Rattus norvegicus, UniProt P18508+P62813+P63079); experiment: Xenopus oocyte two-electrode voltage clamp; format: cell-based; settings: a1b3g2
T12 construct: expressed in transfected cells; host or cells: Xenopus laevis oocytes (cRNA injection)

[4] = biological target: T3, α1β2(N265S)γ2 GABAA receptors; parameters: method as in PMID 19741491; settings: concentrations up to 1 mM; cited from earlier work
medial CeA neurons = experiment: Brain slice whole cell patch clamp recording; format: cell-based, rat; settings: 100 μM, focally applied following DCUK-OEt (0.5 µM)
Method: Slices were prepared from brains of 5 adult male Wistar rats (250–350 g) as described by Herman et al.[56]. A single slice was transferred to a recording chamber mounted on the stage of an upright microscope (Olympus BX50WI).
Neurons were visualized and whole cell patch clamp recordings were made as previously described[56]. Series resistance was typically <15 MΩ and was continuously monitored with a hyperpolarizing 10 mV pulse. Electrophysiological properties of cells were determined by pClamp 10 Clampex software online during voltage-clamp recording using a 5 mV pulse delivered after breaking into the cell. The resting membrane potential was determined online after breaking into the cell using the zero current (I = 0) recording configuration and the liquid junction potential was included in the determination. […]
Frequency, amplitude and decay of spontaneous inhibitory postsynaptic currents (sIPSCs) were analyzed and visually confirmed using a semi-automated threshold based mini detection software (Mini Analysis, Synaptosoft Inc.). Averages of sIPSC characteristics were determined from baseline and experimental drug conditions containing a minimum of 60 events (time period of analysis varied as a product of individual event frequency) and decay kinetics were determined using exponential curve fittings and reported as decay time (ms). […]

[5] = biological target: GABAA receptors (washed rat brain membranes); experiment: Displacement of [3H]muscimol binding (PDSP); settings: 5 nM [3H]muscimol
Method: Rat brain membranes were prepared as described in the Protocol Manual on the PDSP website (https://pdspdb.unc.edu/pdspWeb/). […] The final concentration of [^3H]muscimol in the assay mixture was 5 nM. […] Analysis of ligand binding data.

[6] = biological target: GABAA receptors, benzodiazepine site (washed rat brain membranes); experiment: [3H]Flunitrazepam binding and displacement; settings: read-out: [3H]Flunitrazepam Binding, displacement, 1 nM [3H]flunitrazepam, 10 µM GABA
Method: Membrane Preparation. These experiments were performed at the University of Colorado Health Sciences Center, Denver, CO. Experiments were approved by the Institutional Animal Care and Use Committee (IACUC) of the University of Colorado, Denver, and were performed in accordance with the NIH Guide for the Care and Use of Laboratory Animals. Male Sprague-Dawley rats (200–250 g) were maintained in an AAALAC-accredited facility and sacrificed by CO2 exposure and decapitation. Brains were removed, and membranes were prepared from the forebrain as described previously. Ligand binding assay. […] Bound and free ligand were separated by rapid filtration under vacuum over Whatman GF/B filters presoaked in buffer in a 24 port Brandel Cell Harvester. Filters were washed with 2 × 5 ml of ice-cold HEPES buffer and dried prior to measurement of bound radioactivity by scintillation counting (Beckman LS3800 scintillation counter) using Ultima Gold XR scintillation cocktail. Analysis of ligand binding data.

α4β3δ GABAA receptors [7] = biological target: T1, α4β3δ GABAA receptors; experiment: Xenopus oocyte two-electrode voltage clamp; format: cell-based, rat; settings: a4b3d; [Zn++] 1 µM
α4β3γ2 GABAA receptors [8] = biological target: T2, α4β3γ2 GABAA receptors; experiment: Xenopus oocyte two-electrode voltage clamp; format: cell-based, rat; settings: a4b3g2; [Zn++] 1 µM

T1 sequence (P48169 36-554): as the sequence (P48169 36-554) above
T1 sequence (P63079 26-473): as the sequence (P63079 26-473) above
T1 sequence (P18506 17-449 limits assumed): as the sequence (P18506 17-449 limits assumed) above

NCCCC(=O)O [GABA, γ-aminobutyric acid]
nH (Hill coefficient of GABA concentration-response curve) (α4β3δ GABAA receptors [1]): 0.84 ± 0.07
nH (Hill coefficient of GABA concentration-response curve) (α4β3γ2 GABAA receptors [2]): 1.01 ± 0.09
nH (Hill coefficient of GABA concentration-response curve) [3]: 0.81 ± 0.06
nH (Hill coefficient of GABA concentration-response curve) (α1β3δ GABAA receptors): 0.78 ± 0.07
nH (Hill coefficient of GABA concentration-response curve) (α1β1γ2 GABAA receptors): 0.76 ± 0.07
nH (Hill coefficient of GABA concentration-response curve) (α5β3 GABAA receptors): 0.93 ± 0.07
nH (Hill coefficient of GABA concentration-response curve) (α5β3γ2 GABAA receptors): 0.93 ± 0.04
nH (Hill coefficient of GABA concentration-response curve) (α1β2γ1 GABAA receptors): 0.87 ± 0.06
nH (Hill coefficient of GABA concentration-response curve) (α1β2γ2 GABAA receptors; a1b2g2): 0.99 ± 0.03
nH (Hill coefficient of GABA concentration-response curve) (α1β2 GABAA receptors): 1.19 ± 0.08
nH (Hill coefficient of GABA concentration-response curve) (α1β3 GABAA receptors): 0.97 ± 0.06
nH (Hill coefficient of GABA concentration-response curve) (α1β3γ2 GABAA receptors): 1.33 ± 0.08

CCOC(=O)c1cncn1[C@H](C)c1ccccc1 [Etomidate, etomidate]
GABA potentiating effect at α1β2(N265S)γ2 [4]: no GABA potentiating effect

CCOC(=O)c1ncn2c1CN(C)C(=O)c1cc(F)ccc1-2 [flumazenil]
Potentiation of EC10 GABA responses (α1β2γ2 GABAA receptors): 51 ± 2%

C[C@]12CC[C@@H](O)C[C@@H]1CC[C@@H]1[C@@H]2CC[C@]2(C)C(c3ccccc3)=CC[C@@H]12 [Compound 17PA, 17-phenyl-(3α,5α)-androst-16-en-3-ol]
inhibition at 10 µM (α1β2γ2 GABAA receptors; read-out: Inhibition by 17PA of DCUK-OEt potentiation of GABA actions): 35%
inhibition at 10 µM (α1β2γ2 GABAA receptors; read-out: Inhibition by 17PA of the potentiating effects of allopregnanolone on GABA-induced currents): 56%

COc1ccc(-c2ccc(=N)n(CCCC(=O)O)n2)cc1 [gabazine]
Holding current when applied after DCUK-OEt (medial CeA neurons): significant reduction in holding current

O=C(O)c1cc(NC(=O)N(c2ccccc2)c2ccccc2)c2c(Cl)cc(Cl)cc2n1 [DCUKA, 5,7 dichloro-4-([diphenylcarbamoyl]amino) quinoline-2-carboxylic acid]
Ki [5]: 6.6 ± 1.9 µM
Effect of co-applied flumazenil on DCUK actions on α1β2γ2 GABAA receptors (α1β2γ2 GABAA receptors; 20 μM flumazenil, EC10 GABA): did not significantly affect
Effect on submaximal GABA (EC10) currents (α1β2γ2 GABAA receptors; oocytes containing α1β2γ2 GABAA receptors): enhanced
Ki [6]: > 10 µM

[Zn+2] [Zn++]
% change of EC10 GABA responses by Zn++ ([3]; [Zn++] 10 µM): 10 ± 2%
% change of EC10 GABA responses by Zn++ (α1β3δ GABAA receptors; [Zn++] 1 µM): -35 ± 1%
% change of EC10 GABA responses by Zn++ (α1β1γ2 GABAA receptors; [Zn++] 100 µM): 21 ± 3%
% change of EC10 GABA responses by Zn++ (α5β3 GABAA receptors; [Zn++] 10 µM): -89 ± 2%
% change of EC10 GABA responses by Zn++ (α4β3δ GABAA receptors [7]): -31 ± 6%
% change of EC10 GABA responses by Zn++ (α5β3γ2 GABAA receptors; [Zn++] 10 µM): -29 ± 6%
% change of EC10 GABA responses by Zn++ (α1β2γ1 GABAA receptors; [Zn++] 10 µM): 0.4 ± 1.4%
% change of EC10 GABA responses by Zn++ (α1β2γ2 GABAA receptors; a1b2g2, [Zn++] 10 µM): -9 ± 4%
% change of EC10 GABA responses by Zn++ (α4β3γ2 GABAA receptors [8]): -43 ± 4%
% change of EC10 GABA responses by Zn++ (α1β2 GABAA receptors; [Zn++] 10 µM): -99 ± 1%
% change of EC10 GABA responses by Zn++ (α1β3 GABAA receptors; [Zn++] 1 µM): -85 ± 3%
% change of EC10 GABA responses by Zn++ (α1β3γ2 GABAA receptors; [Zn++] 10 µM): -19 ± 4%
